Experimental data from patent US6525026B2, “Carbamyloxy compounds which inhibit leukocyte adhesion mediated by VLA-4” (Elan Pharmaceuticals, Inc., priority 1997, dated 2003).
Numbered stars: 1 amine (or outer) side, 2 acyl side, 3 side chain; on linkers, the order of the positions; unused ones are H or OH. Side chains are listed from the residue outwards. Peptide text beside a SMILES is read from it. * marks the point of attachment. Tos = Cc1ccc(S(=O)(=O)*)cc1; CO = O=C([*:1])[*:2]; OiPr = CC(C)O*

system: rats or guinea pigs; test: Experimental Autoimmune (or Allergic) Encephalomyelitis (EAE) model, motor impairment; type: in vivo; settings: treatment from Day 8, 10 mg/kg to 200 mg/kg bid for five days, SC, PO or IP

SMILES | active in EAE in vivo assay (delayed the onset of symptoms, e.g., clinical scores no greater than 2 or slowed body weight loss as compared to the control)
Cc1ccc(S(=O)(=O)N2CCC[C@H]2C(=O)N[C@@H](Cc2ccc(OC(=O)N3CCN(C)CC3)cc2)C(=O)OC(C)(C)C)cc1 [Example 4, N-(Toluene-4-sulfonyl)-L-prolyl-L-4-(4-methylpiperazin-1-ylcarbonyloxy)phenylalanine tert-Butyl Ester] | active
Cc1ccc(S(=O)(=O)N2CCC[C@H]2C(=O)N[C@@H](Cc2ccc(OC(=O)N(C)C)cc2)C(=O)O)cc1 [Example 9, N-(Toluene-4-sulfonyl)-L-prolyl-L-4-(N,N-dimethylcarbamyloxy)phenylalanine] (Tos-Pro-Tyr([CO-NMe2])-OH) | active
Cc1ccc(S(=O)(=O)N2CSC(C)(C)[C@H]2C(=O)N[C@@H](Cc2ccc(OC(=O)N(C)C)cc2)C(=O)OC(C)C)cc1 [Example 11, N-(Toluene-4-sulfonyl)-L-(5,5-dimethyl)thiaprolyl-L-4-(N,N-dimethylcarbamyloxy)phenylalanine Isopropyl Ester] | active
Cc1ccc(S(=O)(=O)N2CSC(C)(C)[C@H]2C(=O)N[C@@H](Cc2ccc(OC(=O)N(C)C)cc2)C(=O)OC(C)(C)C)cc1 [Example 12, N-(Toluene-4-sulfonyl)-L-(5,5-dimethyl)thiaprolyl-L-4-(N,N-dimethylcarbamyloxy)phenylalanine tert-Butyl Ester] | active
Cc1ccc(S(=O)(=O)N2CSC(C)(C)[C@H]2C(=O)N[C@@H](Cc2ccc(OC(=O)N3CCN(C)CC3)cc2)C(=O)OC(C)(C)C)cc1 [Example 16, N-(Toluene-4-sulfonyl)-L-(5,5-dimethyl)thiaprolyl-L-4-(4-methylpiperazin-1-ylcarbonyloxy)phenylalanine tert-Butyl Ester] | active
Cc1ccc(S(=O)(=O)N2CCS(=O)(=O)C[C@@H]2C(=O)N[C@@H](Cc2ccc(OC(=O)N(C)C)cc2)C(=O)OC(C)(C)C)cc1 [Example 51, N-(Toluene-4-sulfonyl)-L-(1,1-dioxothiamorpholin-3-carbonyl)-L-4-(N,N-dimethylcarbamyloxy)phenylalanine tert-Butyl Ester] | active
Cc1ccc(S(=O)(=O)N2CCS(=O)(=O)C[C@@H]2C(=O)N[C@@H](Cc2ccc(OC(=O)N(C)C)cc2)C(=O)OC(C)C)cc1 [Example 73, N-(Toluene-4-sulfonyl)-L-(1,1-dioxothiamorpholin-3-carbonyl)-L-4-(N,N-dimethylcarbamyloxy)phenylalanine Isopropyl Ester] | active
Cc1ccc(S(=O)(=O)N2CS(=O)(=O)C(C)(C)[C@H]2C(=O)N[C@@H](Cc2ccc(OC(=O)N(C)C)cc2)C(=O)OC(C)C)cc1 [Example 75, N-(Toluene-4-sulfonyl)-L-(1,1-dioxo-5,5-dimethyl)thiaprolyl-L-4-(N,N-dimethylcarbamyloxy)phenylalanine Isopropyl Ester] | active
Cc1ccc(S(=O)(=O)N2CCC[C@H]2C(=O)N[C@@H](Cc2ccc(OC(=O)N3CCSCC3)cc2)C(=O)OC(C)(C)C)cc1 [Example 82, N-(Toluene-4-sulfonyl)-L-prolyl-L-4-(thiomorpholin-4-ylcarbonyloxy)phenylalanine tert-Butyl Ester] | active
CN(C)C(=O)Oc1ccc(C[C@H](NC(=O)[C@H]2N(S(=O)(=O)c3ccc(F)cc3)CSC2(C)C)C(=O)OC(C)(C)C)cc1 [Example 95, N-(4-Fluorobenzenesulfonyl)-L-(5,5-dimethyl)thiaprolyl-L-4-(N,N-dimethylcarbamyloxy)phenylalanine tert-Butyl Ester] | active
Cc1ccc(S(=O)(=O)N2CCC[C@H]2C(=O)N[C@@H](Cc2ccc(OC(=O)N(C)C)cc2)C(=O)OC(C)C)cc1 [Example 101, N-(Toluene-4-sulfonyl)-L-prolyl-L-4-(N,N-dimethylcarbamyloxy)-L-phenylalanine Isopropyl Ester] (Tos-Pro-Tyr([CO-NMe2])-OiPr) | active
CN(C)C(=O)Oc1ccc(C[C@H](NC(=O)[C@@H]2CCCN2S(=O)(=O)c2cnn(C)c2)C(=O)OC(C)(C)C)cc1 [Example 117, N-(Methyl-pyrazole-4-sulfonyl)-L-prolyl-L-(4-N,N-dimethylcarbamyloxy)phenylalanine tert-Butyl Ester] | active
CC(C)OC(=O)[C@H](Cc1ccc(OC(=O)N(C)C)cc1)NC(=O)[C@@H]1CCCN1S(=O)(=O)c1cnn(C)c1 [Example 137, N-(Methyl-pyrazole-4-sulfonyl)-L-prolyl-L-(4-N,N-dimethylcarbamyloxy)-phenylalanine Isopropyl Ester] | active

system: not given; test: not given; settings: not given

SMILES | melting point [°C]
Cc1ccc(S(=O)(=O)N2CCC[C@H]2C(=O)N[C@@H](Cc2ccc(OC(=O)N3CCN(CCO)CC3)cc2)C(=O)OC(C)(C)C)cc1 | 158 to 160
